These results are taken from PMC8308740 (Pharmaceuticals, 2021).

Series [1] has as its target T1, TbPTR1 (Trypanosoma brucei brucei, UniProt O76290).
T1 construct: His tag; made in house; host or cells: E. coli
T1 sequence (O76290 1-268): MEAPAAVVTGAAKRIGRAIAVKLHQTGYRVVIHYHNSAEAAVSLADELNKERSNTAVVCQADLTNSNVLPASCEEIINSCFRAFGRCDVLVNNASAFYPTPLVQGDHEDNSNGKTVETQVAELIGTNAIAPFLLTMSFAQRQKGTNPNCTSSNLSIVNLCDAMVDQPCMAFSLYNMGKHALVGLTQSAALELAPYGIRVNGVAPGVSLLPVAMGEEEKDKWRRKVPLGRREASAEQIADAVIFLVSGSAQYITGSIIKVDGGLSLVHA
The following applies: read-out: TbPTR1 IC50; cited from earlier work.

The target of a further series is T2, TbDHFR-TS (Trypanosoma brucei brucei, UniProt Q27783).
T2 construct: His tag; made in house; host or cells: E. coli
T2 sequence (Q27783 whole entry): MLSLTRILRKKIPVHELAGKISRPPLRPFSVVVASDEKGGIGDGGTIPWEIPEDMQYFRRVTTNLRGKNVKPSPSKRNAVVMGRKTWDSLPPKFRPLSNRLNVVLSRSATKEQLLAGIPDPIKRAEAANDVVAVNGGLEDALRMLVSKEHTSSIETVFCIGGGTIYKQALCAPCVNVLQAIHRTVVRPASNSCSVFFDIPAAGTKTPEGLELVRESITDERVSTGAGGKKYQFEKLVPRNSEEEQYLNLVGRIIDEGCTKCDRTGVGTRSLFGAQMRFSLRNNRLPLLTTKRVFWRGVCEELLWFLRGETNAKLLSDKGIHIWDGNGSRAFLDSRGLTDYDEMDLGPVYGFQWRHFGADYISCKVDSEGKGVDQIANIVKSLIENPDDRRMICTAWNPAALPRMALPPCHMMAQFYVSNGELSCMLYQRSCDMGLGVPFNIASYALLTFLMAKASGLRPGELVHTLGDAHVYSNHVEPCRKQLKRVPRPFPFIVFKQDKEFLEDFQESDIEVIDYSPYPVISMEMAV
Kind of series: biochemical. In kind it is biochemical. The following applies: for Selectivity IC50 hDHFR /IC50 TbDHFR-TS: ratio, PYR and CYC from Ki values. Here is the method: (§1) Recombinant TbPTR1, TbDHFR-TS, and hDHFR were expressed in E. coli as histidine-tagged proteins and purified following established protocols. Purified recombinant enzymes were stored in stock solutions having concentrations of 0.93 mg/mL, 0.53 mg/mL, and 0.88 mg/mL, for TbPTR1, TbDHFR-TS, and hDHFR, respectively. A direct spectrophotometric kinetic test was used to evaluate the inhibitory activity of the compound library. A Jasco-V730 double beam spectrophotometer (Jasco Europe) was employed to perform the assays. Fixed final concentrations of purified TbPTR1, TbDHFR-TS, and hDHFR (15 nM, 55 nM, and 15 nM respectively) were incubated in semi-micro plastic cuvettes (Brand, Tech Scientific, Essex, UK) with 400 µL of sodium citrate buffer at pH = 3.7 and TES buffer (100 mM TES, 50 mM MgCl2, 13 mM CH2O, 2 mM EDTA, 150 mM 2-mercaptoethanol, pH 7.4), plus 25 µM 7,8-dihydro-L-biopterin (H2B, Sigma Aldrich) for TbPTR1 and 50 µM of 7,8-dihydrofolic acid (H2FA, Sigma Aldrich) for TbDHFR-TS and hDHFR enzymes.
(§2) Residual NADP(H) absorption (λmax = 340 nm), converted to NADP^+ as cofactor, was monitored for 180 s of the ongoing reaction and its Δ(OD)/min was registered for v(0) slope at 22.4 °C. Each inhibition assay was performed in triplicate, and five to six different concentrations of compounds were tested to assess their relative IC50.
(§3) The equation used to interpolate points was y = y(min) + (y(max) − y(min))/(1 + (IC50/x)^^HillSlope), where HillSlope was constrained at −1 (standard Michaelis–Menten behaviour for competitive inhibitors), from which IC50 were extrapolated. Standard deviations—as reported in Table 1—were obtained from 95% confidence interval (CI95) of fitting.

Series [2] concerns the target T1, TbPTR1. Kind of series: biochemical. The following applies: for Selectivity IC50 TbDHFR-TS /IC50 TbPTR1: ratio, for PYR and CYC calculated assuming a competitive inhibition mechanism; for IC50: recombinant enzyme, citrate buffer pH 3.7, 25 µM H2B, spread from CI95 of fitting; for fold improvement of inhibitory activity against TbPTR1 relative to CYC: versus CYC IC50. It is filed as biochemical. Here is the method:
as §1, §2, §3

The target in the next series is T3, hDHFR (Homo sapiens, UniProt P00374).
T3 construct: His tag; made in house; host or cells: E. coli
T3 sequence (P00374 1-187): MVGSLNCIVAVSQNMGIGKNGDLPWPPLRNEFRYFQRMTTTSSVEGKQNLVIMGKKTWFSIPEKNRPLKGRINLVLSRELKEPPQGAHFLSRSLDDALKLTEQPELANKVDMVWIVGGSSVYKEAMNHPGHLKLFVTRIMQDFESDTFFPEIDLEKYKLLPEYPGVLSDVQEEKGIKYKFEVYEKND
Kind of series: hDHFR spectrophotometric enzyme inhibition assay. In kind it is biochemical. The following applies: TES buffer pH 7.4, 50 µM H2FA; spread from CI95 of fitting. Here is the method:
as §1, §2, §3

Series [3] in a line: Stability of compound 6 in solution at different pH (HPLC-ELSD). The following applies: pH 10.5, 7 and 3.7, room temperature, overnight / 30 h. It is filed as physicochemical. Here is the method:
Although it was unusual, we suspected the potential hydrolysis of the acetamido group to generate an amine and acetic acid. Therefore, we tested the compound stability at pH 10.5, 7, and 3.7 overnight at room temperature.
We have studied the stability of the CYC-like compound 6 to test the hydrolysis of the N-acetyl group in different pH buffers and to screen its putative prodrug action. We prepared three 10 µM solutions from a 100 µM DMSO stock of compound 6 in double deionized water, at pH 10.5 with NaOH, and in citrate buffer, pH 3.7, used for kinetic assays with TbPTR1. We have monitored the purity of these solutions with HPLC–ELSD just after compound dilutions. A volume of 7 µL of each solution was immediately injected in an HPLC Atlantis dC18, 150 × 3.9 mm, 3 µm ID column (Waters Corp, Milford, MA, US) coupled to an ELSD detector (Agilent 1260 Infinity II system). Compounds were eluted with 0.1% formic acid in water (A) and pure acetonitrile (B), gradient 10% to 50% B for 10 min, at 0.5 mL min^−1, room temperature. Detector parameters were set as follows: Neb = 30 °C, Evap = 40 °C, N2 flow = 1.6 SLM, smoothing = 3.0 s. […] Compound stability also was evaluated with 1H-NMR, obtaining the same results. We thus concluded that compound 6 is not susceptible to pH mediated hydrolysis, and acts as a TbPTR1 inhibitor as N-acetylated compounds.

Series [4] concerns the molecule itself. Description: crystal structure; TbPTR1 crystals by hanging drop vapour diffusion at room temperature, 2-2.5 M sodium acetate, 0.1 M sodium citrate pH 5; soaked with 3 mM PYR; space group P21 with a functional tetramer in the asymmetric unit; NADP(H) bound.
The mark [5] stands for this setting: TES buffer pH 7.4, 50 µM H2FA, spread from CI95 of fitting, read-out: TbDHFR-TS (IC50 µM).

“And” between values parts separate entries of the source, which are not always exact repeats. Equal values may be shown once. “Also recorded” adds a separate entry of the source. Read-outs that look alike come from different tables or passages of the source.

Broadly, the IC50 is the concentration needed to halve the response being measured. As to `CC1(C)N=C(N)N=C(N)N1c1ccc(Cl)cc1` [CYC, cycloguanil], the IC50 at TbPTR1 [1] is 31600 nM.

`CC1N=C(N)N=C(N)N1c1ccc(Cl)cc1` (stereo not shown) [Compound 1]: at TbDHFR-TS, inhibition was half-maximal at 103 µM (IC50) and the “Selectivity IC50 hDHFR /IC50 TbDHFR-TS” value is 3.27. In addition, on TbPTR1 [2], the “Selectivity IC50 TbDHFR-TS /IC50 TbPTR1” value is 16.9 and the IC50 is 6.02 µM. This molecule also yielded an IC50 at hDHFR of 337 µM.

In the case of `CC1(C)N=C(N)N=C(N)N1c1ccc(Cl)c(Cl)c1` [Compound 1a], the IC50 at TbPTR1 [1] is 692 nM.

`CCCC1N=C(N)N=C(N)N1c1ccc(Cl)cc1` (stereo not shown) [Compound 2]: at TbDHFR-TS, inhibition was half-maximal at 7.26 µM (IC50); the “Selectivity IC50 hDHFR /IC50 TbDHFR-TS” value was 9.2 and 9.19. At TbPTR1 [2], the “Selectivity IC50 TbDHFR-TS /IC50 TbPTR1” value was 0.26 and the IC50 came out at 27.5 µM. Further, the IC50 against hDHFR is 66.7 µM.

Regarding `NC1=NC(c2ccc([N+](=O)[O-])cc2)N(c2ccc(Cl)c(Cl)c2)C(N)=N1` (stereo not shown) [Compound 2a], at TbPTR1 [1], the IC50 was 186 nM.

With `NC1=NC2(CCCCC2)N(c2ccc(Cl)cc2)C(N)=N1` [Compound 3], the IC50 at TbDHFR-TS (setting [5]) amounted to 17.6 µM; on TbPTR1 [2], 1.22 µM; against hDHFR it was 65.6 µM. Besides, the “Selectivity IC50 hDHFR /IC50 TbDHFR-TS” value at TbDHFR-TS is given as 3.73. Besides, the “Selectivity IC50 TbDHFR-TS /IC50 TbPTR1” value on TbPTR1 [2] was 14.4. Besides, the “fold improvement of inhibitory activity against TbPTR1 relative to CYC” value on TbPTR1 [2] turned out to be 30 fold.

Consider `CC1(C)N=C(N)N=C(N)N1c1ccc(O)cc1` [Compound 4], for which the IC50 on TbDHFR-TS (setting [5]) stood at 89 µM; on TbPTR1 [2], 4.1 µM; against hDHFR, 284 µM. In addition, the “Selectivity IC50 hDHFR /IC50 TbDHFR-TS” value on TbDHFR-TS worked out at 3.19. In addition, on TbPTR1 [2], the “Selectivity IC50 TbDHFR-TS /IC50 TbPTR1” value is given as 21.7.

As to `COc1ccc(N2C(N)=NC(N)=NC2(C)C)cc1` [Compound 5, 1-(4-methoxyphenyl)-6,6-dimethyl-1,6-dihydro-1,3,5-triazine-2,4-diamine], the IC50 at TbDHFR-TS (setting [5]) worked out at 33.2 µM. Besides, the “Selectivity IC50 hDHFR /IC50 TbDHFR-TS” value on TbDHFR-TS stood at 12.4. Moreover, at TbPTR1 [2], the “Selectivity IC50 TbDHFR-TS /IC50 TbPTR1” value is reported as 49.6, the IC50 amounted to 0.67 µM and the “fold improvement of inhibitory activity against TbPTR1 relative to CYC” value came out at 46 fold. Besides, 413 µM corresponded to half-maximal inhibition on hDHFR (IC50).

Regarding `COc1ccc(N2C(N)=NC(NC(C)=O)=NC2(C)C)cc1` [Compound 6, N-[6-amino-5-(4-methoxyphenyl)-4,4-dimethyl-4,5-dihydrotriazin-2-yl]acetamide], the half-maximal inhibitory concentration (IC50) at TbDHFR-TS (setting [5]) came out at 18.9 µM; at TbPTR1 [2], 0.83 µM; against hDHFR, 62.5 µM. The “Selectivity IC50 hDHFR /IC50 TbDHFR-TS” value on TbDHFR-TS was 3.31. Further, the “Selectivity IC50 TbDHFR-TS /IC50 TbPTR1” value at TbPTR1 [2] is listed as 22.8. The “compound stability (hydrolysis of N-acetyl group), HPLC analysis” value in series [3] is “fully stable; also recorded: no changes in chromatograms were detected”.

B1: Trypanosoma brucei pteridine reductase 1 (enzyme)
chain: T1 sequence (O76290 1-268)
notes: pteridine reductase 1 (PTR1) of Trypanosoma brucei, recombinant; also called TbPTR1; PTR1; source: E. coli, histidine-tagged, purified following established protocols
As a reminder, the stoichiometry N is the number of molecules, sites or subunits per partner or assembly. For B1, the “stoichiometry N” value in series [4] was determined as 4.
